Measurements from patent US20150219624A1, “METHODS FOR IDENTIFYING ANTI-CANCER COMPOUNDS” (MEMORIAL SLOAN KETTERING CANCER CENTER, priority 2013, published 2015).

Legend:
[1] = tested on: human T-ALL lines; experiment: Activity in established human T-ALL cell lines; assay type: cell-based; conditions: PTEN wild type vs PTEN mutant
[2] = tested on: KOPTK1 cells; experiment: Transcriptome-scale ribosome footprinting (translational efficiency, rDiff ribosome distribution); assay type: cell-based, human; conditions: for log2(Translational Efficiency): TE down genes with G-Quadruplex structure
Experimental: Ribosome Footprinting. KOPTK1 cells were treated with silvestrol or DMSO for 45 minutes, followed by cycloheximide treatment for 10 minutes and then harvested for total RNA and ribosome footprint fragment isolation. Total RNA was isolated using RNA isolation kit from Qiagen (74104) and subjected to RNA sequencing. Ribosome protected fragments were isolated following published protocol (Ingolia et al., 2009). Briefly cell lysates were subjected to ribosome footprinting by nuclease treatment. Footprint fragments were purified by one step sucrose cushion and gel extraction. Deep sequencing libraries were generated from these fragments. Both total RNA and footprint fragment libraries were analyzed by sequencing on the HiSeq 2000 platform.
Sequence Alignment. Sequences were aligned to the transcripts available from the human genome sequence hg19 from UCSC public database. Ribosome footprint (RF) reads were aligned to reference genome hg19 using PALMapper (Jean et al., 2010). Only the uniquely aligned reads were used for analysis. Read length of 25- to 35-bp was selected and used to analyze the translation effect of silvestrol. Total mRNA sequencing reads were aligned to the hg19 reference using STAR (Dobin et al., 2013). The splice alignment was used, and only used the uniquely aligned reads with maximum 3 mismatches.
Footprint Profile Analysis. The genome annotation was from GENCODE project (http://www.gencodegenes.org/releases/14.html). Ribosome footprint intensity (reads per million, RPM) and the expression value (reads per kilobase per million, RPKM) were measured from total mRNA-seq data and translation values were measured from ribosome footprint data. To evaluate the translation efficiency (TE) change between silvestrol- and vehicle-treated samples, TE was calculated as RPKMfootprint/RPKMmRNA (as Thoreen et al. did recently (Thoreen et al., 2012)). Changes in ribosome footprint profiles were determined by using DEXSeq algorithm (Anders et al., 2012). DEXSeq accounts for the discrete nature of the read counts and models biological variability to avoid false positives. Ratio of TEsilvestrol/TEcontrol of all the genes was plotted and color-highlighted according to the statistical significance of DEXSeq test.
Ribosome distribution analysis. The ribosomal distribution change was evaluated between silvestrol treated samples and controls. A BED file containing all non-overlapped exonic regions was generated based on genome annotation. Then the BED file and footprint BAM files were given as an input to SAMTOOLS (Li et al., 2009a) to generate new BAM files that only included exonic alignment. The exonic BAM files were input for two conditions to rDiff (Drewe et al., 2013) to identify genes that presented significant change in ribosomal distribution.
Sequence Alignment. The human genome sequence hg19 was downloaded from UCSC public database: http://hgdownload.cse.ucsc.edu/goldenPath/hg19/chromosomes. Ribosome footprint (RF) reads were aligned to reference genome hg19 using PALMapper (Jean et al., 2010). PALMapper clips the linker sequence (5′-[…]-3′), which is technically introduced during RF library construction, and trims the remaining sequence from the 3′ end while aligning the reads to reference sequence. Briefly, the parameters for PALMapper were set as follows: maximum number of mismatches: 2; maximum number of gaps: 0; minimum aligning length: 15; maximum intron length (splice alignment): 10000; minimum length of a splicing read aligned to either side of the intron boundary: 10. Only the uniquely aligned reads were used for further analysis.
To remove ribosome RNA contamination, the footprint reads were also aligned to a ribosome sequence database using PALMapper with the same parameters except allowing splice alignment. […]

[3] = tested on: SKNCM; experiment: Silvestrol in neuroblastoma cell lines in vitro: SKNCM; assay type: cell-based; conditions: SKNCM cells
Experimental: The effect of silvestrol on several neuroblastoma cell lines was evaluated.

COC(=O)[C@H]1[C@@H](O)[C@@]2(O)c3c(OC)cc(O[C@@H]4O[C@@H]([C@H](O)CO)CO[C@H]4OC)cc3O[C@@]2(c2ccc(OC)cc2)[C@@H]1c1ccccc1 [silvestrol]
activity against PTEN wild type and PTEN mutant cell lines and primary T-ALL cells [1]: equal activity
effect on cap-dependent translation (ribosome footprints) ([2]; 25 nM, 45 minutes): immediate and broad inhibitory effect
log2(Translational Efficiency) ([2]; gene ADAM10 (ENSG00000137845)): −0.2089
log2(Translational Efficiency) ([2]; gene AFTPH (ENSG00000119844)): −0.5917
log2(Translational Efficiency) ([2]; gene ATP2B4 (ENSG00000058668)): −0.3028
log2(Translational Efficiency) ([2]; gene BCL11B (ENSG00000127152)): −0.5178
log2(Translational Efficiency) ([2]; gene C16orf72 (ENSG00000182831)): −0.2553
log2(Translational Efficiency) ([2]; gene CAMK2D (ENSG00000145349)): −0.4082
log2(Translational Efficiency) ([2]; gene CCRN4L (ENSG00000151014)): −0.4802
log2(Translational Efficiency) ([2]; gene CDIPT (ENSG00000103502)): −0.324
log2(Translational Efficiency) ([2]; gene CERS6 (ENSG00000172292)): −0.2051
log2(Translational Efficiency) ([2]; gene CHIC2 (ENSG00000109220)): −0.5212
log2(Translational Efficiency) ([2]; gene CHST11 (ENSG00000171310)): −0.146
log2(Translational Efficiency) ([2]; gene CPSF4 (ENSG00000160917)): −0.3194
log2(Translational Efficiency) ([2]; gene DIAPH1 (ENSG00000131504)): −0.2136
log2(Translational Efficiency) ([2]; gene DOM3Z (ENSG00000204348)): −0.5959
log2(Translational Efficiency) ([2]; gene DYNLL2 (ENSG00000121083)): −0.1378
log2(Translational Efficiency) ([2]; gene EP300 (ENSG00000100393)): −0.4645
log2(Translational Efficiency) ([2]; gene FAM49B (ENSG00000153310)): −0.1392
log2(Translational Efficiency) ([2]; gene FKRP (ENSG00000181027)): −0.996
log2(Translational Efficiency) ([2]; gene FOXJ2 (ENSG00000065970)): −0.4735
log2(Translational Efficiency) ([2]; gene GABARAPL1 (ENSG00000139112)): −1.234
log2(Translational Efficiency) ([2]; gene GIPC1 (ENSG00000123159)): −0.4783
log2(Translational Efficiency) ([2]; gene GNB1 (ENSG00000078369)): −0.1338
log2(Translational Efficiency) ([2]; gene GYG2 (ENSG00000056998)): −0.9297
log2(Translational Efficiency) ([2]; gene HDGFRP3 (ENSG00000166503)): −0.6088
log2(Translational Efficiency) ([2]; gene HIPK1 (ENSG00000163349)): −0.2827
log2(Translational Efficiency) ([2]; gene ITPR1 (ENSG00000150995)): −0.6283
log2(Translational Efficiency) ([2]; gene MAP3K2 (ENSG00000169967)): −0.377
log2(Translational Efficiency) ([2]; gene MAPKAPK2 (ENSG00000162889)): −0.3527
log2(Translational Efficiency) ([2]; gene MBNL1 (ENSG00000152601)): −0.1522
log2(Translational Efficiency) ([2]; gene MED13 (ENSG00000108510)): −0.2939
log2(Translational Efficiency) ([2]; gene MED13L (ENSG00000123066)): −0.4159
log2(Translational Efficiency) ([2]; gene MGRN1 (ENSG00000102858)): −0.3096
log2(Translational Efficiency) ([2]; gene MTA2 (ENSG00000149480)): −0.2235
log2(Translational Efficiency) ([2]; gene MYO9A (ENSG00000066933)): −0.4735
log2(Translational Efficiency) ([2]; gene NANS (ENSG00000095380)): −0.3218
log2(Translational Efficiency) ([2]; gene NDFIP1 (ENSG00000131507)): −0.2429
log2(Translational Efficiency) ([2]; gene PABPC4 (ENSG00000090621)): −0.2428
log2(Translational Efficiency) ([2]; gene PAFAH1B1 (ENSG00000007168)): −0.3832
log2(Translational Efficiency) ([2]; gene PAFAH1B2 (ENSG00000168092)): −0.3883
log2(Translational Efficiency) ([2]; gene PAIP2 (ENSG00000120727)): −0.1573
log2(Translational Efficiency) ([2]; gene PAK4 (ENSG00000130669)): −0.628
log2(Translational Efficiency) ([2]; gene PANX1 (ENSG00000110218)): −0.3987
log2(Translational Efficiency) ([2]; gene PATZ1 (ENSG00000100105)): −0.3245
log2(Translational Efficiency) ([2]; gene PPP6R1 (ENSG00000105063)): −0.1576
log2(Translational Efficiency) ([2]; gene PTGER4 (ENSG00000171522)): −0.2748
log2(Translational Efficiency) ([2]; gene PTP4A2 (ENSG00000184007)): −0.1429
log2(Translational Efficiency) ([2]; gene QKI (ENSG00000112531)): −0.2913
log2(Translational Efficiency) ([2]; gene RFXANK (ENSG00000064490)): −0.3247
log2(Translational Efficiency) ([2]; gene RNF4 (ENSG00000063978)): −0.3442
log2(Translational Efficiency) ([2]; gene RNF19A (ENSG00000034677)): −0.4839
log2(Translational Efficiency) ([2]; gene RPS12 (ENSG00000112306)): −0.1732
log2(Translational Efficiency) ([2]; gene SHISA2 (ENSG00000180730)): −0.6086
log2(Translational Efficiency) ([2]; gene SLC25A22 (ENSG00000177542)): −0.3386
log2(Translational Efficiency) ([2]; gene SLC35B3 (ENSG00000124786)): −0.9178
log2(Translational Efficiency) ([2]; gene SMEK1 (ENSG00000100796)): −0.1765
log2(Translational Efficiency) ([2]; gene SRRM2 (ENSG00000167978)): −0.08166
log2(Translational Efficiency) ([2]; gene STAG2 (ENSG00000101972)): −0.1873
log2(Translational Efficiency) ([2]; gene TAF6 (ENSG00000106290)): −0.2102
log2(Translational Efficiency) ([2]; gene TBC1D24 (ENSG00000162065)): −1.231
log2(Translational Efficiency) ([2]; gene TGFB1 (ENSG00000105329)): −0.2213
log2(Translational Efficiency) ([2]; gene TLE3 (ENSG00000140332)): −0.2278
log2(Translational Efficiency) ([2]; gene TMEM248 (ENSG00000106609)): −0.2362
log2(Translational Efficiency) ([2]; gene TNRC6B (ENSG00000100354)): −0.4442
log2(Translational Efficiency) ([2]; gene TRIM2 (ENSG00000109654)): −2.147
log2(Translational Efficiency) ([2]; gene TUBGCP4 (ENSG00000137822)): −0.5346
log2(Translational Efficiency) ([2]; gene UBE2G1 (ENSG00000132388)): −0.3367
log2(Translational Efficiency) ([2]; gene USP20 (ENSG00000136878)): −0.2066
log2(Translational Efficiency) ([2]; gene ZNF48 (ENSG00000180035)): −0.5828
log2(Translational Efficiency) ([2]; gene ZNF800 (ENSG00000048405)): −0.2711
IC50 [3]: 20.2 nM
